The record followed here is patent publication EP3130589A1, “HETEROCYCLIC AZA COMPOUNDS” (Grünenthal GmbH, priority 2015, dated 2017).

The target in this test is T1, TRPV1 human (Homo sapiens, UniProt Q8NER1).
T1 construct: expressed in transfected cells; host or cells: CHO K1 cells
Put plainly: Functional testing on the vanilloid receptor 1 (VR1/TRPV1): FLIPR Ca2+ influx assay, inhibition of capsaicin (CAP) stimulation. Type of test: cell-based. The following applies: for Ki: functional (f) FLIPR assay, capsaicin (CAP) 100 nM, Ki from IC50 by Cheng-Prusoff equation; for TRPV1 human (f) CAP, result in words: ne = did not show any effect in this assay, pAG = partial agonist. The protocol:
Furthermore, preference may be given to compounds according to the invention that cause a 50 per cent displacement of capsaicin, which is present at a concentration of 100 nM, in a FLIPR assay with CHO K1 cells which were transfected with the human VR1 gene at a concentration of less than 6,000 nM, preferably less than 5,000 nM, more preferably less that 3,000 nM or less than 1,000 nM and particularly preferably less than 300 nM, most particularly preferably less than 100 nM, even more preferably less than 75 nM, additionally preferably less than 50 nM, most preferably less than 10 nM.
In the process, the Ca^2+ influx is quantified in the FLIPR assay with the aid of a Ca^2+-sensitive dye (type Fluo-4, Molecular Probes Europe BV, Leiden, the Netherlands) in a fluorescent imaging plate reader (FLIPR, Molecular Devices, Sunnyvale, USA), as described hereinafter.
Functional testing carried out on the vanilloid receptor 1 (VRI/TRPV1 receptor) […]
The number of cells in the suspension is set to 3 x 10^5 per mL and 150 µL of this suspension are in each case introduced into a recess in the cell culture plates coated as described hereinbefore. In the incubator the plates are left for two to three days at 37°C, 5 vol.-% of CO2 and 95 % relative humidity. Subsequently, the cells are loaded with 2 µM of Fluo-4 and 0.01 vol.-% of Pluronic F127 (Molecular Probes Europe BV, Leiden, the Netherlands) in HBSS buffer for 30 min at 37°C, washed 3 times with HBSS buffer and after further incubation for 15 min at RT used for Ca^2+ measurement in a FLIPR assay. The Ca^2+-dependent fluorescence is in this case measured before and after the addition of substances (λex = 488 nm, λem = 540 nm). Quantification is carried out by measuring the highest fluorescence intensity (FC, fluorescence counts) over time.
The FLIPR protocol consists of 2 substance additions. First the compounds to be tested (10 µM) are pipetted onto the cells and the Ca^2+ influx is compared with the control (capsaicin 10 µM). This provides the result in % activation based on the Ca^2+ signal after the addition of 10 µM of capsaicin (CP). After 5 min incubation, 100 nM of capsaicin are applied and the Ca^2+ influx is also determined. Desensitising agonists and antagonists lead to suppression of the Ca^2+ influx. The % inhibition is calculated compared to the maximum achievable inhibition with 10 µM of capsazepine.
Triple analyses (n=3) are carried out and repeated in at least 3 independent experiments (N=4). Starting from the percentage displacement caused by different concentrations of the compounds to be tested of general formula I, IC50 inhibitory concentrations which cause a 50% displacement of capsaicin were calculated.
Ki values for the test substances were obtained by conversion by means of the Cheng-Prusoff equation (Cheng, Prusoff; Biochem. Pharmacol. 22, 3099-3108, 1973).

T1 sequence (Q8NER1 whole entry): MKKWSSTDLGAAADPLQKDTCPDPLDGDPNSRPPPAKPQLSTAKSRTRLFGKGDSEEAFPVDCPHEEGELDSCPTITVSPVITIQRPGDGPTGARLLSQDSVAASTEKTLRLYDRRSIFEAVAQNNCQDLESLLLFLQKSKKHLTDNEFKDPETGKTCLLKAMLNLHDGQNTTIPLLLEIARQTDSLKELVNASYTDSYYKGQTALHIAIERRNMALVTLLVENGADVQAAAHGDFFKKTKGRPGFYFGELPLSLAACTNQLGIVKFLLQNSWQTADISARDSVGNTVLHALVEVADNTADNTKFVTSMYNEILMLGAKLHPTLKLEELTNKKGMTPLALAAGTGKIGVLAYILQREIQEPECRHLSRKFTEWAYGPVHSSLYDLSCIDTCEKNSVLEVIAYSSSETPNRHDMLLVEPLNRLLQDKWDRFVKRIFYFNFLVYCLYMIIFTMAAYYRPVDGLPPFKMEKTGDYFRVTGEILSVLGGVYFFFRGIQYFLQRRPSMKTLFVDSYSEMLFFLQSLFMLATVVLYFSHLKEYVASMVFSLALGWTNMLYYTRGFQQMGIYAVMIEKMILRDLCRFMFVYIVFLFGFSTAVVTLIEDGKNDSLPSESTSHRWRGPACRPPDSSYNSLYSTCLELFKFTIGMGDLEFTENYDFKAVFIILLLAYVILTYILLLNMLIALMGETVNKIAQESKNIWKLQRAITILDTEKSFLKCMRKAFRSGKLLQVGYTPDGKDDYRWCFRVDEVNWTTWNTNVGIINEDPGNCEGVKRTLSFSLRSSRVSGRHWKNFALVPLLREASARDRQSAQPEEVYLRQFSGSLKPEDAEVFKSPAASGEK

As a reminder, the Ki is the dissociation constant of the complex between target and ligand, obtained from inhibition or displacement. The low end stands for tighter binding, the high end for weaker binding. Consider `CCCCNc1nc(C(F)(F)F)ccc1CNC(=O)C(C)c1cn(C)c2ccc(O)cc12` (stereo not drawn) [example compound 6, N-((2-(butylamino)-6-(trifluoromethyl)pyridin-3-yl)methyl)-2-(5-hydroxy-1-methyl-1H-indol-3-yl)propanamide], for which the Ki is 16.2 nM. Same read-out and setting: to `Cn1cc(CC(=O)NCc2ccc(C(F)(F)F)nc2C2CCCC2)c2cc(O)ccc21` [example compound 21, N-((2-cyclopentyl-6-(trifluoromethyl)pyridin-3-yl)methyl)-2-(5-hydroxy-1-methyl-1H-indol-3-yl)acetamide] belongs 8 nM. For `CCNc1nc(C(F)(F)F)ccc1CNC(=O)C(C)c1cn(C)c2ccc(OC)cc12` (stereo not drawn) [example compound 16, N-((2-(ethylamino)-6-(trifluoromethyl)pyridin-3-yl)methyl)-2-(5-methoxy-1-methyl-1H-indol-3-yl)propanamide], the “TRPV1 human (f) CAP, result in words” value is listed as “ne”. Regarding `CC1CCN(c2nc(C(F)(F)F)ccc2CNC(=O)Nc2nc3ccccc3[nH]2)CC1` [example compound 26, 1-(1H-benzo[d]imidazol-2-yl)-3-((2-(4-methylpiperidin-1-yl)-6-(trifluoromethyl)pyridin-3-yl)methyl)urea], the “TRPV1 human (f) CAP, result in words” value is given as “ne”.

Take `CC1CCN(c2nc(C(F)(F)F)ccc2CNC(=O)Nc2nc3c([N+](=O)[O-])cccc3s2)CC1` [example compound 24, 1-((2-(4-methylpiperidin-1-yl)-6-(trifluoromethyl)pyridin-3-yl)methyl)-3-(4-nitrobenzo[d]thiazol-2-yl)urea]: the affinity corresponds to a Ki of 31.2 nM and the “TRPV1 human (f) CAP, result in words” value is listed as “pAG”. As to `CC(C(=O)NCc1ccc(C(F)(F)F)nc1N1CCCC1)c1cn(C)c2ccc(O)cc12` (stereo not drawn) [example compound 5, 2-(5-hydroxy-1-methyl-1H-indol-3-yl)-N-((2-(pyrrolidin-1-yl)-6-(trifluoromethyl)pyridin-3-yl)methyl)propanamide], the Ki is 5 nM. `CCCCNc1nc(C(F)(F)F)ccc1CNC(=O)C(C)c1cn(C)c2ccc(OC)cc12` (stereo not drawn) [example compound 19, N-((2-(butylamino)-6-(trifluoromethyl)pyridin-3-yl)methyl)-2-(5-methoxy-1-methyl-1H-indol-3-yl)propanamide] registered a Ki of 76.4 nM. `Cn1cc(CC(=O)NCc2ccc(C(F)(F)F)nc2N2CCOCC2)c2cc(O)ccc21` [example compound 20, 2-(5-hydroxy-1-methyl-1H-indol-3-yl)-N-((2-morpholino-6-(trifluoromethyl)pyridin-3-yl)methyl)acetamide] returned a Ki of 16.5 nM. Still for that read-out and setting: to `COCCCc1nc(C(F)(F)F)ccc1CNC(=O)C(C)c1cn(C)c2ccc(O)cc12` (stereo not drawn) [example compound 12, 2-(5-hydroxy-1-methyl-1H-indol-3-yl)-N-((2-(3-methoxypropyl)-6-(trifluoromethyl)pyridin-3-yl)methyl)propanamide] belongs 81 nM; to `CC(C(=O)NCc1ccc(C(F)(F)F)nc1C1CCCC1)c1cn(C)c2ccc(O)cc12` (stereo not drawn) [example compound 3, N-((2-cyclopentyl-6-(trifluoromethyl)pyridin-3-yl)methyl)-2-(5-hydroxy-1-methyl-1H-indol-3-yl)propanamide], 4.8 nM; to `CCNc1nc(C(F)(F)F)ccc1CNC(=O)Cc1cn(C)c2ccc(O)cc12` [example compound 18, N-((2-(ethylamino)-6-(trifluoromethyl)pyridin-3-yl)methyl)-2-(5-hydroxy-1-methyl-1H-indol-3-yl)acetamide], 8.2 nM.

`CC(C(=O)NCc1ccc(C(F)(F)F)nc1OC1CCOCC1)c1cn(C)c2ccc(O)cc12` (stereo not drawn) [example compound 7, 2-(5-hydroxy-1-methyl-1H-indol-3-yl)-N-((2-((tetrahydro-2H-pyran-4-yl)oxy)-6-(trifluoromethyl)pyridin-3-yl)methyl)propanamide]: the affinity, expressed as Ki, was 29.1 nM. Still for that read-out and setting: to `CC1CCN(c2nc(C(F)(F)F)ccc2CNC(=O)C(C)c2cn(C)c3ccc(O)cc23)CC1` (stereo not drawn) [example compound 1, 2-(5-hydroxy-1-methyl-1H-indol-3-yl)-N-((2-(4-methylpiperidin-1-yl)-6-(trifluoromethyl)pyridin-3-yl)methyl)propanamide] belongs 0.8 nM; to `CC(C(=O)NCc1ccc(C(F)(F)F)nc1CC1CCCCC1)c1cn(C)c2ccccc12` (stereo not drawn) [example compound 22, N-((2-(cyclohexylmethyl)-6-(trifluoromethyl)pyridin-3-yl)methyl)-2-(1-methyl-1H-indol-3-yl)propanamide], 35.9 nM.
